Here are results for 30 molecules from ChEMBL document CHEMBL1151137, “Natural products as a source of potential cancer chemotherapeutic and chemopreventive agents” (1990).

One experiment relates to MCF7. Briefly: Cytotoxicity against human MCF7 cells. It counts as functional. Conditions: read-out: ED50 (the source's name).
For another experiment, the system named is A549. The experiment is described as follows: Cytotoxicity against human A549 cells. As to conditions: read-out: ED50 (the source's name). It counts as functional.
For the next experiment, the system named is HT-29. The experiment is described as follows: Cytotoxicity against human HT-29 cells. Conditions: for EC50: Homo sapiens, HT-29, read-out: ED50 (the source's name). Type of experiment: functional.
Experiment [1] is described as follows: Chemopreventive activity in Chinese hamster embryonic cells assessed as inhibition of benzo[a]pyrene metabolism to water soluble derivatives. It counts as functional, Cricetulus griseus. As to conditions: for IC50: Cricetulus griseus, read-out: ID50 (the source's name).
Experiment [2] can be described thus: Cytotoxicity against mouse 9PS cells. Type of experiment: functional. Conditions: for EC50: Mus musculus, read-out: ED50 (the source's name).
Experiment [3] can be described thus: Chemopreventive activity in Chinese hamster embryonic cells assessed as inhibition of benzo[a]pyrene metabolism at 10 to 25 ug/ml. Type of experiment: functional, Cricetulus griseus.
Experiment [4] deals with P388. Briefly: In vivo antitumor activity against mouse P388 cells at 20 mg/kg relative to control. It counts as functional.
The nature of experiment [5]: Cytotoxicity against human 9KB cells. It counts as functional. As to conditions: read-out: ED50 (the source's name).
Experiment [6] relates to P388. Briefly: In vivo antitumor activity against mouse P388 cells at 50 mg/kg relative to control. Type of experiment: functional.

Values after ≈ are worked out from the molar mass of the structure shown.

As to `COc1cc(C2Oc3c(OC)cc4c(=O)c5c(OC)cccc5oc4c3OC2COC(C)=O)ccc1O` (centres undefined), the EC50 is greater than 10 µg/mL in the experiment on MCF7, 4 µg/mL (≈ 7.87 µM) in the experiment on A549 and 4 µg/mL (≈ 7.87 µM) in the experiment with HT-29.
With `COc1cc(C2Oc3c(OC)cc4c(=O)c5c(OC)cccc5oc4c3OC2CO)cc(OC)c1O` (centres undefined), the EC50 in the experiment with MCF7, with A549 and in the experiment on HT-29 was greater than 10 µg/mL each time.
As to `COc1cc(C2Oc3ccc4c(=O)c5c(O)cc(O)cc5oc4c3OC2CO)cc(OC)c1O` (centres undefined), the EC50 in the experiment with MCF7 was greater than 10 µg/mL; with A549, 3 µg/mL (≈ 6.4 µM); in the experiment on HT-29, 0.4 µg/mL (≈ 0.854 µM).
In the same order, the values of `COc1cc2c(c3oc4c(O)cccc4c(=O)c13)C[C@H]([C@](C)(O)COC(C)=O)O2` are 2.5 µg/mL (≈ 6.24 µM), 2 µg/mL (≈ 5 µM) and 0.016 µg/mL (≈ 0.04 µM).
As for `COc1cc(C2Oc3c(OC)cc4c(=O)c5ccccc5oc4c3OC2CO)ccc1O` (centres undefined), the EC50 in the experiment on MCF7 was greater than 10 µg/mL; with A549, 3 µg/mL (≈ 6.87 µM); with HT-29, 3 µg/mL (≈ 6.87 µM).
In the case of `COc1cc(C2Oc3c(OC)cc4c(=O)c5ccccc5oc4c3OC2CO)cc(OC)c1O` (centres undefined), the EC50 in the experiment with MCF7, in the experiment with A549 and in the experiment on HT-29 was greater than 10 µg/mL in each case.
In the case of `COc1cc(C2Oc3c(OC)cc4c(=O)c5c(OC)cccc5oc4c3OC2CO)ccc1O` (centres undefined), the EC50 in the experiment with MCF7, in the experiment with A549 and in the experiment with HT-29 was greater than 10 µg/mL each time.
`COc1cc2c(c3oc4c(O)cccc4c(=O)c13)C[C@H]([C@](C)(O)CO)O2`: the EC50 in the experiment on MCF7 is greater than 10 µg/mL; in the experiment on A549, greater than 10 µg/mL; with HT-29 it was 2.3 µg/mL (≈ 6.42 µM).
As for `COc1ccc(-c2coc3cc(OC)cc(O)c3c2=O)cc1` [4',7-DIMETHOXY-5-HYDROXYGENISTEIN], in [1], the IC50 is greater than 50 µg/mL.
Regarding `COc1ccc(-c2cc(=O)c3c(O)cc(O)cc3o2)cc1` [ACACETIN], the IC50 in [1] came out at 15 µg/mL (≈ 52.8 µM).
In the case of `CCCCCCCCCCCC[C@@H](O)[C@H]1CC[C@H]([C@H](O)CCCCC(=O)CCCCC[C@@H](O)CC2=C[C@H](C)OC2=O)O1` [ANNONACINONE], the ED50 in experiment [2] turned out to be 1 ×10⁻⁶ ug/ml. Besides, the values for the EC50 in the experiment on A549 and with HT-29 were 0.1 µg/mL (≈ 0.168 µM) and 1 µg/mL (≈ 1.68 µM), respectively.
In experiment [2], `CCCCCCCCCCCC[C@@H](O)[C@H]1CC[C@H]([C@H](O)CCCC[C@H](O)CCCCC[C@@H](O)CC2=CC(C)OC2=O)O1` (some centres undefined) [ANNONACIN] displayed an ED50 of 1 ×10⁻⁵ ug/ml. Moreover, the values for the EC50 in the experiment with A549 and in the experiment with HT-29 were 0.001 µg/mL (≈ 0.00168 µM) and 3 µg/mL (≈ 5.03 µM), respectively.
As to `O=c1cc(-c2ccc(O)cc2)oc2cc(O)cc(O)c12` [APIGENIN], the IC50 in experiment [1] was determined as 17 µg/mL (≈ 62.9 µM).
Still for that read-out and setting: then `COc1ccc(-c2coc3cc(OC)cc(OC)c3c2=O)cc1` [BIOCHANIN A, DIMETHYL ETHER], with 50 µg/mL (≈ 160 µM).
`COc1ccc(-c2coc3cc(O)cc(O)c3c2=O)cc1` [BIOCHANIN]: the IC50 in [1] worked out at 25 µg/mL (≈ 87.9 µM). For the same molecule, the “inhibition (INH)” value in experiment [3] is on record as 30%.
For the molecule `O=c1cc(-c2ccccc2)oc2cc(O)cc(O)c12` [CHRYSIN], in [1], the IC50 was 12 µg/mL (≈ 47.2 µM).
The same measure, in the same setting: then `O=c1c(-c2ccc(O)cc2)coc2cc(O)cc(O)c12` [GENISTEIN], with 30 µg/mL (≈ 111 µM).
As to `COc1cccc(C/C(=N/OS(=O)(=O)O)S[C@@H]2O[C@H](CO)[C@@H](O)[C@H](O)[C@H]2O)c1` [GLUCOLIMNANTHIN], the “inhibition (INH)” value in experiment [1] stood at 71%.
Turning to `CCCCCCCCCCCC[C@H](O)[C@@H]1CC[C@@H]([C@@H](O)CCCCC(=O)CCCCCC2CC(CC(C)=O)C(=O)O2)O1` (some centres undefined) [ISOANNONACINONE], the EC50 in experiment [2] is 0.5 µg/mL (≈ 0.841 µM); in the experiment with A549 it was 0.07 µg/mL (≈ 0.118 µM); in the experiment with HT-29 it was 0.009 µg/mL (≈ 0.0151 µM).
For `CCCCCCCCCCCC[C@H](O)[C@@H]1CC[C@@H]([C@@H](O)CCCCC(O)CCCCCC2CC(CC(C)=O)C(=O)O2)O1` (some centres undefined) [ISOANNONACIN], the values for the EC50 (in experiment [2]; in the experiment on A549; in the experiment with HT-29) were 3 µg/mL (≈ 5.03 µM), 0.02 µg/mL (≈ 0.0335 µM) and 0.002 µg/mL (≈ 0.00335 µM), respectively.
For orientation: T/C means the result in the treated group divided by that in the control group, in per cent. In the experiment on P388 [4], `CC(C)c1oc(=O)cc2c1[C@@H](O)[C@H]1OC(=O)[C@@]3(C)[C@@H](O)[C@H]4O[C@H]4[C@@]2(C)[C@@H]13` [NAGILACTONE C] displayed a T/C of 145%.
Consider `O=C1C[C@@H]2c3ccccc3O[C@H]3c4cc(O)ccc4-c4c(O)cc(O)c1c4[C@H]23` [OHIOENSIN A], for which the EC50 with MCF7 was 9 µg/mL (≈ 24.2 µM); in [5], greater than 10 µg/mL; in [2] it was 1 µg/mL (≈ 2.69 µM); in the experiment with A549 it was greater than 10 µg/mL; in the experiment with HT-29, greater than 10 µg/mL.
Regarding `O=C1C[C@@H]2c3ccccc3O[C@H]3c4cccc(O)c4-c4c(O)cc(O)c1c4[C@H]23` [OHIOENSIN B], the EC50 was 7 µg/mL (≈ 18.8 µM) with MCF7; greater than 10 µg/mL in [5]; 1 µg/mL (≈ 2.69 µM) in experiment [2]; 8 µg/mL (≈ 21.5 µM) in the experiment on A549; greater than 10 µg/mL in the experiment on HT-29.
Regarding `COc1cc(O)c2c3c1-c1c(O)cccc1[C@@H]1Oc4ccccc4[C@@H](CC2=O)[C@@H]31` [OHIOENSIN C], the EC50 was 3 µg/mL (≈ 7.76 µM) with MCF7; 10 µg/mL (≈ 25.9 µM) in [5]; greater than 10 µg/mL in experiment [2]; greater than 10 µg/mL in the experiment on A549; 4 µg/mL (≈ 10.4 µM) in the experiment with HT-29.
With `COc1cc(O)c2c3c1-c1c(ccc(O)c1O)[C@@H]1Oc4ccccc4[C@@H](CC2=O)[C@@H]31` [OHIOENSIN D], the EC50 with MCF7 was greater than 10 µg/mL; in experiment [5] it was greater than 10 µg/mL; in [2] it was 1 µg/mL (≈ 2.49 µM); in the experiment with A549, greater than 10 µg/mL; with HT-29, greater than 10 µg/mL.
As for `COc1ccc2c(c1O)-c1c(OC)cc(O)c3c1[C@@H]1[C@H](CC3=O)c3ccccc3O[C@@H]21` [OHIOENSIN E], the EC50 with MCF7 was greater than 10 µg/mL; in experiment [5], greater than 10 µg/mL; in experiment [2], 1 µg/mL (≈ 2.4 µM); in the experiment on A549, 6 µg/mL (≈ 14.4 µM); in the experiment with HT-29 it was greater than 10 µg/mL.
Take `C[S+]([O-])C[C@@](C)(O)[C@H]1OC(=O)C=C2[C@@]13O[C@@H]3[C@H]1OC(=O)[C@@]3(C)[C@H]4O[C@H]4C[C@@]2(C)[C@@H]13` (some centres undefined) [PODOLACTONE C]: the T/C in the experiment with P388 [4] was found to be 151%.
As for `CC(C)[C@H]1OC(=O)C=C2[C@@]13O[C@@H]3[C@H]1OC(=O)[C@@]3(C)C=CC[C@@]2(C)[C@@H]13` [PODOLIDE], the T/C in the experiment with P388 [6] amounted to 127%.
For the molecule `COc1cc2c(c3oc4c(O)cccc4c(=O)c13)[C@@H]1OC[C@@](C)(O)[C@@H]1O2` [PSOROFEBRIN], the EC50 with MCF7 was greater than 10 µg/mL; in the experiment with A549 it was greater than 10 µg/mL; with HT-29, 8.5 µg/mL (≈ 23.9 µM).
On to `COc1cc2c(c3oc4c(O)cccc4c(=O)c13)C[C@H]([C@@]1(C)CO1)O2` [PSOROSPERMIN], for which the EC50 stood at 0.012 µg/mL (≈ 0.0353 µM) in the experiment with MCF7 and 0.0016 µg/mL (≈ 0.0047 µM) in the experiment on A549. The ED50 in the experiment with HT-29 was greater than 1 ×10⁻⁵ ug/ml.
